This test concerns NK92 cells. The test is described as follows: Metabolic incorporation of azido sialic acid in NK92 cells, detected with FITC-Stau by confocal laser microscope. Type of test: cell-based. The settings on record: NK92 cells cultured with 100 μM 9N3-SA for 24-48 hours; FITC-Stau 100 μM, 37° C., 2-4 hours; compared with cells not modified. As for the experimental part:
NK92 cells normally cultured are distributed into a 24-well plate and then cultured in a NK92 cell medium containing 9N3-SA with a final concentration of 100 μM for 24-48 hours. The NK92 cells are washed by PBS for 3 times, and the NK92 cell medium containing 9N3-SA is then replaced by a normal NK92 medium to obtain NK92 cells modified with the azide groups. In order to verify that the NK92 cells have been modified with the azide groups, in this embodiment, Fluorescein-Stau (FITC-Stau) (as shown in FIG. 3), a ligand molecule connected to fluorescein and able to orthogonally react with the azide groups, is synthesized. The FITC-Stau is added into a medium of the NK92 cell modified with the azide groups with a final concentration of 100 μM, incubated at 37° C. for 2-4 hours, and washed with PBS for 3 times, and fluorescence on the cell surface is then observed by a confocal laser microscope.

Molecules are shown by their SMILES.

Consider `COC(=O)[C@@]1(O)C[C@@H](O)[C@@H](NC(C)=O)C([C@H](O)[C@H](O)CN=[N+]=[N-])O1` (stereo partly shown) [9N3-SA], for which the “fluorescence on the cell surface after FITC-Stau labeling” value is listed as “strong fluorescence signal”.
